Data from article PMC6556873, “Rapid Covalent-Probe Discovery by Electrophile-Fragment Screening” (Journal of the American Chemical Society, 2019).
Read-outs that look alike come from different tables or passages of the source.

Experiments:
NUDT7 = molecular target: T1, NUDT7 (Homo sapiens, UniProt P0C024); design: Intact protein LC/MS covalent labelling, fragments in pools of five, 200 uM each, 4 °C; details: 24 h, 4 °C, pool of five; 200 µM; covalent
T1 construct: residues 14-235, E. coli, pNIC28-Bsa4, N-terminal His6 tag removed by TEV, construct 26672 Da

OTUB2 (OTUB2A) = molecular target: T2, OTUB2 (OTUB2A) (Homo sapiens, UniProt Q96DC9); design: Intact protein LC/MS covalent labelling, fragments in pools of five, 200 uM each, 4 °C; details: 24 h, 4 °C, pool of five; 200 µM; covalent
T2 construct: full length residues 1-234, E. coli BL21(DE3)-R3, His tag removed by TEV, construct 27312 Da
T2 sequence (Q96DC9 1-234): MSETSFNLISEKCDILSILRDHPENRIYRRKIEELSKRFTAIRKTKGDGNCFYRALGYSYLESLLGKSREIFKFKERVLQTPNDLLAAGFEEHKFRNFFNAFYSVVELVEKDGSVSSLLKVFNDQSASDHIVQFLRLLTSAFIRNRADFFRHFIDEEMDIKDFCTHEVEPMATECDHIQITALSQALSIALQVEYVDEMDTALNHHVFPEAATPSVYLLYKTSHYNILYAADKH

PCAF = molecular target: T3, PCAF (Homo sapiens, UniProt Q92831); design: Intact protein LC/MS covalent labelling, fragments in pools of five, 200 uM each, 4 °C; details: 24 h, 4 °C, pool of five; 200 µM; covalent
T3 construct: gene KAT2B

BSA = molecular target: T4, BSA (Bos taurus, UniProt P02769); design: Intact protein LC/MS covalent labelling, fragments in pools of five, 200 uM each, 4 °C; details: 24 h, 4 °C, pool of five; 200 µM; covalent
T4 construct: gene ALB

in vitro [1] = experiment: in vitro; design: species or system HB2, HEK293; details: human, ccd841 cells
in vitro [2] = experiment: in vitro; design: species or system CCD841, HEK293; details: human, hb2 cells, read-out: HB-2 Cells Viability (%)
in vitro [3] = experiment: in vitro; design: species or system HB2, CCD841; details: human, hek293 cells

T1 sequence (P0C024 14-235): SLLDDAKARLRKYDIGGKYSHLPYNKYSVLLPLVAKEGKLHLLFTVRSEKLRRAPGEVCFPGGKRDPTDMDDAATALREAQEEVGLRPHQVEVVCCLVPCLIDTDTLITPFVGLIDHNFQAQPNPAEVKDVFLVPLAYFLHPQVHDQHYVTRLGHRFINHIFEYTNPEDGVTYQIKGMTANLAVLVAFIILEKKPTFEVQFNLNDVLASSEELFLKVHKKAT
T3 sequence (Q92831 whole entry, the tested form may be a part): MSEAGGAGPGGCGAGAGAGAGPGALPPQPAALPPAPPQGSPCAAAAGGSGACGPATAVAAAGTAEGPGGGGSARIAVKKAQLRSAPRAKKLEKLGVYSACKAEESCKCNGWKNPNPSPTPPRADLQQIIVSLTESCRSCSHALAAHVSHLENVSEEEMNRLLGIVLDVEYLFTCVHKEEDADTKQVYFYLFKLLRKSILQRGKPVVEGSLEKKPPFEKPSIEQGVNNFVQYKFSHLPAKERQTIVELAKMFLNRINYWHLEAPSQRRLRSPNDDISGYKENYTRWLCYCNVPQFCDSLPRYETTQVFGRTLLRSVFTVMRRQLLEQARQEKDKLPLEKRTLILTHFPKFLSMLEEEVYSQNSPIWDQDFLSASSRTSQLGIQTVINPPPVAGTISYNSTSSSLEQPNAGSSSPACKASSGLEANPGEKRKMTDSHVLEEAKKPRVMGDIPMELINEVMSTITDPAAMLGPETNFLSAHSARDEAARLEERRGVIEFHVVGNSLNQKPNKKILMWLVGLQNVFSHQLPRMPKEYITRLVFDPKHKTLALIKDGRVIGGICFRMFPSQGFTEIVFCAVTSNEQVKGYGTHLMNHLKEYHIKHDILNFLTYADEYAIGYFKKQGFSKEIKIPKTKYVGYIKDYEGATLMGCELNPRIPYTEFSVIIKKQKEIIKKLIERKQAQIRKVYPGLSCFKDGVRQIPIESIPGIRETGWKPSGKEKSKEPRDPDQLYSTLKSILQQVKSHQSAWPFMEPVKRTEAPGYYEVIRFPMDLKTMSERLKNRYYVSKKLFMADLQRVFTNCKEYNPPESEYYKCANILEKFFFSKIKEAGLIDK
T4 sequence (P02769 whole entry, the tested form may be a part): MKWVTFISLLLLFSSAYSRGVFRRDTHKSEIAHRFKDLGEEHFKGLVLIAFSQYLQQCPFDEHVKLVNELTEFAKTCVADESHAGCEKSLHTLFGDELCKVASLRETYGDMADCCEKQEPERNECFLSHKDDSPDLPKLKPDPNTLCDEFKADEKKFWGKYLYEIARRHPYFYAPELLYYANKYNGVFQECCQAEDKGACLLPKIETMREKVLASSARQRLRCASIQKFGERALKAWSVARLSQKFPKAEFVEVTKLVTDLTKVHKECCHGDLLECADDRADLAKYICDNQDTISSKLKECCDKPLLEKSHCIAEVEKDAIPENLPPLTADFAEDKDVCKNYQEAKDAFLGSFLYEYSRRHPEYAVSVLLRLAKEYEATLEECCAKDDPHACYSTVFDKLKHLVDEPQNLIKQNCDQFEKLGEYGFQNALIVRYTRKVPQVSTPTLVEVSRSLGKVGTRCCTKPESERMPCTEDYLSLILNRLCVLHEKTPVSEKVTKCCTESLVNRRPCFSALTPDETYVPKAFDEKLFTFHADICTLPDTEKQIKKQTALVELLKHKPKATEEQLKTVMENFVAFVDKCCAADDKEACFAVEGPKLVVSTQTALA

| NUDT7 (NUDT7) | OTUB2 (OTUB2 (OTUB2A)) | PCAF (PCAF) | BSA (BSA) | Structure (SMILES) | viability at 48 h, 10 µM (in vitro [1]) | viability at 48 h, 10 µM (in vitro [2]) | viability at 48 h, 10 µM (in vitro [3]) |
| --- | --- | --- | --- | --- | --- | --- | --- |
| 0.12 | 0 | 0 | 0 | COC(=O)c1sccc1NC(=O)CCl [PCM-0102367] | 85.5% | 75% | 54% |
| 0.4 | 0 | 0 | 0 | Cc1cccc(N(C(=O)CCl)C2C=CS(=O)(=O)C2)c1 (stereo not drawn) [PCM-0102579] | 16.2% | 29.8% | 6.4% |
| 0.34 | 0 | 0 | 0 | CN(Cc1ccc(Cl)cc1)C(=O)CCl [PCM-0102344] | 24% | 4.3% | 2.1% |
| 0.14 | 0 | 0 | 0 | C=CC(=O)N1CCc2c([nH]c3ccccc23)C1 [PCM-0102650] | 107% | 100% | 85.6% |
| 0.17 | 0 | 0 | 0.3 | CC(C)N(C(=O)CCl)C1CCCCC1 [PCM-0102941] | 26% | 85.7% | 56.3% |
| 0 | 0.12 | 0 | 0 | C=CC(=O)N1CCCC1c1cc(C)on1 (stereo not drawn) [PCM-0102683] | 101% | 103% | 121% |
| 0 | 0 | 0 | 0 | O=C(CCl)NCC1Cc2ccccc2O1 (stereo not drawn) [PCM-0103020] | 88.9% | 99.1% | 87.1% |
| 0 | 0 | 0 | 0 | O=C(CCl)N1CCc2ccccc21 [PCM-0102160] | 44.6% | 6.1% | 16.3% |
| 0 | 0 | 0 | 0 | C=CC(=O)NC1CCCn2nc(C)nc21 (stereo not drawn) [PCM-0103083] | 116% | 105% | 115% |
| 0 | 0.51 | 0 | 0 | Cc1ccc(C(C)NC(=O)CCl)cc1C (stereo not drawn) [PCM-0102270] | 78.1% | 80.2% | 67.9% |
| 0.09 | 0.24 | 0 | 0.09 | O=C(CCl)Nc1ccc(I)cc1 [PCM-0102278] | 57.1% | 18.7% | 4.9% |
| 0 | 0 | 0 | 0 | CCOC(=O)C1CCN(C(=O)CCl)CC1 [PCM-0102656] | 90.3% | 86% | 69.4% |
| 0 | 0.35 | 0 | 0 | Cc1ccc(-n2nc(C)cc2NC(=O)CCl)cc1 [PCM-0102224] | 67.5% | 49.3% | 24.9% |
| 0.11 | 0 | 0 | 0 | CN(CC(F)(F)F)C(=O)CCl [PCM-0102674] | 105% | 101% | 101% |
| 0 | 0 | 0 | 0 | CCC(C)NC(=O)NC(=O)CCl (stereo not drawn) [PCM-0102908] | 91.8% | 110% | 88.7% |
| 0 | 0.13 | 0 | 0 | O=C(CCl)Nc1cc(Cl)ccc1F [PCM-0102762] | 49.4% | 11.4% | 2.4% |
| 0.11 | 0 | 0 | 0 | O=C(CCl)N1c2ccccc2OCC1c1ccccc1 (stereo not drawn) [PCM-0102266] | 57.5% | 56.8% | 52.1% |

| NUDT7 (NUDT7) | OTUB2 (OTUB2 (OTUB2A)) | PCAF (PCAF) | BSA (BSA) | Structure (SMILES) | viability at 48 h, 10 µM (in vitro [1]) | viability at 48 h, 10 µM (in vitro [2]) | viability at 48 h, 10 µM (in vitro [3]) |
| --- | --- | --- | --- | --- | --- | --- | --- |
| 0 | 0 | 0 | 0 | CN(C(=O)CCl)C(C)(C)C#N [PCM-0102782] | 92.5% | 95.9% | 77.7% |
| 0 | 0 | 0 | 0 | Cc1nnc(NC(=O)CCl)o1 [PCM-0102147] | 107% | 102% | 92.2% |
| 0.39 | 0 | 0 | 0 | CC(c1ccc(Cl)cc1)N(C)C(=O)CCl (stereo not drawn) [PCM-0102556] | 11.5% | 4.9% | 3.1% |
| 0.72 | 0.1 | 0 | 0 | N#Cc1c(NC(=O)CCl)sc2c1CCCC2 [PCM-0102580] | 78% | 77.2% | 67.4% |
| 0 | 0 | 0 | 0 | Cc1nnc(NC(=O)CCl)s1 [PCM-0102211] | 86.7% | 99.8% | 90.5% |
| 0 | 0.12 | 0 | 0 | CC(c1ccccc1)N1CCN(C(=O)CCl)CC1.Cl (stereo not drawn) [PCM-0102710] | 72.5% | 36.7% | 41.3% |
| 0 | 0 | 0 | 0.17 | O=C(CCl)Nc1nccs1 [PCM-0102242] | 79.3% | 88.3% | 70.1% |
| 0 | 0 | 0 | 0 | O=C(CCl)Nc1ccc(Br)cn1 [PCM-0102227] | 75.7% | 84.3% | 72.4% |
| 0 | 0.09 | 0 | 0 | O=C(CCl)N1CC=C(c2ccccc2)CC1 [PCM-0103038] | 86.8% | 90.9% | 89.2% |
| 0 | 0 | 0 | 0 | NC(=O)C1CCCCN1C(=O)CCl (stereo not drawn) [PCM-0102203] | 75.3% | 79.7% | 50.7% |
| 0 | 0 | 0 | 0 | CC1CCC(N(C)C(=O)CCl)CC1 (stereo not drawn) [PCM-0103019] | 40.7% | 39.2% | 39.9% |
| 0 | 0 | 0 | 0 | CCN(C(=O)CCl)C1CC1 [PCM-0102594] | 95.2% | 100% | 92.7% |
| 0 | 0 | 0 | 0 | C=CC(=O)Nc1ccccc1F [PCM-0102856] | 119% | 106% | 84% |
| 0 | 0 | 0 | 0 | O=C(CCl)N1CCNC1=O [PCM-0102338] | 98.6% | 99.5% | 86.5% |
| 0.28 | 0 | 0 | 0 | NC(=O)c1c(NC(=O)CCl)sc2c1CCC2 [PCM-0102164] | 25.6% | 27.2% | 2.6% |
| 0.19 | 0.29 | 0 | 0 | CC(NC(=O)CCl)c1ccccc1Br (stereo not drawn) [PCM-0102256] | 67.3% | 39% | 27.3% |
